Structures can show the parent of a compound that is named as a salt.
Columns and labels:
TTK = biological target: T1, TTK (Homo sapiens, UniProt P33981); assay: TTK enzyme activity, ADP-Glo kinase assay; assay type: biochemical; parameters: purchased SignalChem T20-10G; settings: purified human TTK, ATP 10 μM, 25° C., 2 hours
T1 sequence (P33981 1-857): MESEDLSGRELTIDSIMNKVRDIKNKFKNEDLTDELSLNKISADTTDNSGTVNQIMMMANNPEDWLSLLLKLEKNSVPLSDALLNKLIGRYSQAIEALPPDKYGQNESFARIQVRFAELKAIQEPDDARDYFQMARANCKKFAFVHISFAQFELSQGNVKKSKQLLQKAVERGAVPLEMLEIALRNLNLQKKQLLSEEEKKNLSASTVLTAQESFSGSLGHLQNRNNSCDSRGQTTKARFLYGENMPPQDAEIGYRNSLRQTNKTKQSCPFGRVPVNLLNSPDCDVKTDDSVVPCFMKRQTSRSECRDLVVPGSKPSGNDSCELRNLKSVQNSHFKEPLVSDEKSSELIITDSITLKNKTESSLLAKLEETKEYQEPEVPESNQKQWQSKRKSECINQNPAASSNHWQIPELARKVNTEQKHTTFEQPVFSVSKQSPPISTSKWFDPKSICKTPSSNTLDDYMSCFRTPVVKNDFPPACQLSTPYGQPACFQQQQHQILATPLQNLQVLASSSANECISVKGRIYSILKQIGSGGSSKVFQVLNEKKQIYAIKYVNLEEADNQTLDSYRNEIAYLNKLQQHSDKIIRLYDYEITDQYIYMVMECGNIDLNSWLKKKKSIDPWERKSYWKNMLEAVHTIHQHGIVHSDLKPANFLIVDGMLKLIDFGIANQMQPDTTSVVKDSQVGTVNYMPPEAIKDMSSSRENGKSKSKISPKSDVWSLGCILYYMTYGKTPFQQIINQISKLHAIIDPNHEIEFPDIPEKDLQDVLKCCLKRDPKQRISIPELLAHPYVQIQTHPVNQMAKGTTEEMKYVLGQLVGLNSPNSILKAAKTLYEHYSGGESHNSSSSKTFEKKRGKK
Outline: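 ADP-Glo read-out; percent inhibition at each compound concentration was relative to the solvent-only control. The reactions contained 25 ng enzyme, 0.2 μg substrate and 10 μM ATP in 40 mM Tris-HCl pH 7.4 with 20 mM MgCl2, 0.5 mg/mL BSA and 50 μM DTT, and ran 2 h at 25 °C.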

MDA-MB-231 cells = assay: Inhibition of proliferation of triple-negative breast cancer cells, CellTiter-Glo; assay type: cell-based; settings: Homo sapiens, 120 h; MDA-MB-231, cultured for 5 days
Outline: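 MDA-MB-231 cells pre-cultured 24 h (5% CO2, 37 °C), then exposed to compound for 5 days at 12 three-fold dilutions, final 10 μM to 0.05 nM. Viability read by CellTiter-Glo luminescence after 10 min at 37 °C; growth inhibition calculated relative to untreated solvent-control cells.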

SHP-77 = assay: Inhibition of proliferation of small cell lung cancer cells, CellTiter-Glo; assay type: cell-based; settings: Homo sapiens, SHP77, 120 h; SHP-77, cultured for 5 days
Procedure: Specifically, the following test was performed to evaluate the inhibitory activity of the compound according to the present invention against the cell proliferation in the SCLC cells.
To check an inhibitory ability of cell growth in one SCLC cell line, a test was performed as follows. Cells were seeded in 180 μL of a culture broth at a density of 2,000 to 3,000 cells/well in a white clear bottom 96-well plate (Corning) according to the growth ability of each cell, and then cultured for 24 hours under conditions of 5% CO2 and 37° C. Thereafter, the compound was prepared by diluting a 10 mM stock solution three-fold with 100% DMSO at a total of 12 concentrations so that a peak concentration of the compound was in a range of 10 mM to 0.05 μM, and the diluted compound was then diluted in each cell culture medium so that a final concentration of the compound was in a range of 100 μM to 0.5 nM. 20 μL of a diluted solution diluted with a medium was added to the cell solution in which cells were seeded in the 96-well plate on the previous day so that a final concentration of the diluted solution was in a range of 10 μM to 0.05 nM. Each of the cells was cultured for 5 days. To check cell viability, a mixture provided in aCellTiter-Glo® Luminescent Cell Viability Assay Kit (Promega) was added to each of the cultured cell media, and cultured for another 10 minutes under a condition of 37° C. Then, a degree of luminescence (fluorescence) was measured. A degree of inhibition of the cell growth according to the treatment concentration of each of the compounds was calculated based on the fluorescence of the solvent control cells which were not treated with the compound. In this case, the concentration of each of the compounds inhibiting 50% of the cell growth was determined to be a GI50 (nM) value, and calculated using Prism (Version 7.01; GraphPad) software.

Structure (SMILES) | IC50 (TTK) | GI50 (MDA-MB-231 cells) | GI50 (SHP-77)
Cn1nccc1-c1ccc(Nc2nc(NCC3CCCC3)c3c(C#N)c[nH]c3n2)c2c1OCCO2 [Example 50, 4-((cyclopentylmethyl)amino)-2-((8-(1-methyl-1H-pyrazol-5-yl)-2,3-dihydrobenzo[b][1,4]dioxin-5-yl)amino)-7H-pyrrolo[2,3-d] pyrimidine-5-carbonitrile hydrochloride] | 50 to 200 nM | < 100 nM | < 100 nM
Cn1nccc1-c1ccc(Nc2nc(NC3CCCC3)c3cc[nH]c3n2)c2c1OCCO2 [Example 114, N^4-cyclopentyl-N^2-(8-(1-methyl-1H-pyrazol-5-yl)-2,3-dihydrobenzo[b][1,4]dioxin-5-yl)-7H-pyrrolo[2,3-d] pyrimidine-2,4-diamine] | < 50 nM | 100 to 1000 nM | 100 to 1000 nM
COc1cc(Nc2nc(NC3CCCC3)c3c(C#N)c[nH]c3n2)ccc1-c1c(C)noc1C [Example 139, 4-(cyclopentylamino)-2-((4-(3,5-dimethylisoxazol-4-yl)-3-methoxyphenyl)amino)-7H-pyrrolo[2,3-d] pyrimidine-5-carbonitrile] | 200 to 1000 nM | 100 to 1000 nM | < 100 nM
O=C1CCCN1c1ccc(Nc2nc(NC3CCOCC3)c3c(C(F)(F)F)c[nH]c3n2)c2c1OCCO2 [Example 108, 1-(8-((4-((tetrahydro-2H-pyran-4-yl)amino)-5-(trifluoromethyl)-7H-pyrrolo[2,3-d]pyrimidin-2-yl)amino)-2,3-dihydrobenzo[b][1,4]dioxin-5-yl)pyrrolidin-2-one] | < 50 nM | 100 to 1000 nM | 100 to 1000 nM
COCCNc1nc(Nc2ccc(-c3ccnn3C)c3c2OCCO3)nc2[nH]cc(C#N)c12 [Example 49, 4-((2-methoxyethyl)amino)-2-((8-(1-methyl-1H-pyrazol-5-yl)-2,3-dihydrobenzo[b][1,4]dioxin-5-yl)amino)-7H-pyrrolo[2,3-d] pyrimidine-5-carbonitrile] | < 50 nM | < 100 nM | < 100 nM
N#Cc1c[nH]c2nc(Nc3ccc(N4CCCC4=O)c4c3OCCO4)nc(NC3C[C@H]4CC[C@@H]3C4)c12 (stereo partly drawn) [Example 148, 4-(((1R,4S)-bicyclo[2.2.1]heptan-2-yl)amino)-2-((8-(2-oxopyrrolidin-1-yl)-2,3-dihydrobenzo[b][1,4]dioxin-5-yl)amino)-7H-pyrrolo[2,3-d] pyrimidine-5-carbonitrile] | < 50 nM | < 100 nM | < 100 nM
COc1cc(-c2ccnn2C)ccc1Nc1nc(NC2CCCC2)c2c(C#N)c[nH]c2n1 [Example 16, 4-(cyclopentylamino)-2-((2-methoxy-4-(1-methyl-1H-pyrazol-5-yl)phenyl)amino)-7H-pyrrolo[2,3-d] pyrimidine-5-carbonitrile] | < 50 nM | < 100 nM | < 100 nM
CC(C)S(=O)(=O)CCNc1nc(Nc2ccc(-c3ccnn3C)c3c2OCCO3)nc2[nH]cc(C#N)c12 [Example 83, 4-((2-(isopropylsulfonyl)ethyl)amino)-2-((8-(1-methyl-1H-pyrazol-5-yl)-2,3-dihydrobenzo[b][1,4]dioxin-5-yl)amino)-7H-pyrrolo[2,3-d] pyrimidine-5-carbonitrile 2,2,2-trifluoroacetate] | < 50 nM | 100 to 1000 nM | 100 to 1000 nM
C=CC(=O)Nc1cc(-c2ccnn2C)ccc1Nc1nc(NC2CCCC2)c2c(C#N)c[nH]c2n1 [Example 142, N-(2-((5-cyano-4-(cyclopentylamino)-7H-pyrrolo[2,3-d]pyrimidin-2-yl)amino)-5-(1-methyl-1H-pyrazol-5-yl)phenyl)acrylamide] | < 50 nM | 100 to 1000 nM | 100 to 1000 nM
COc1cc(-c2ccnn2C)ccc1Nc1cc(NC2CCCC2)c2c(C#N)c[nH]c2n1 [Example 87, 4-(cyclopentylamino)-6-((2-methoxy-4-(l-methyl-1H-pyrazol-5-yl)phenyl)amino)-1H-pyrrolo[2,3-b] pyridine-3-carbonitrile] | 50 to 200 nM | < 100 nM | < 100 nM
COc1cc(-c2cnn(C)c2)ccc1Nc1nc(NC2CCOC(C)(C)C2)c2c(C#N)c[nH]c2n1 (stereo not drawn) [Example 144, 4-((2,2-dimethyltetrahydro-2H-pyran-4-yl)amino)-2-((2-methoxy-4-(1-methyl-1H-pyrazol-4-yl)phenyl)amino)-7H-pyrrolo[2,3-d] pyrimidine-5-carbonitrile] | < 50 nM | < 100 nM | < 100 nM
Cn1nccc1-c1ccc(Nc2nc(C3CC3)c3c(C#N)c[nH]c3n2)c2c1OCCO2 [Example 112, 4-cyclopropyl-2-((8-(1-methyl-1H-pyrazol-5-yl)-2,3-dihydrobenzo[b][1,4]dioxin-5-yl)amino)-7H-pyrrolo[2,3-d] pyrimidine-5-carbonitrile] | < 50 nM | 100 to 1000 nM | < 100 nM
COc1cc(-c2cnn(C)c2)c(F)cc1Nc1nc(NC2CCCCC2)c2c(C#N)c[nH]c2n1 [Example 126, 4-(cyclohexylamino)-2-((5-fluoro-2-methoxy-4-(1-methyl-1H-pyrazol-4-yl)phenyl)amino)-7H-pyrrolo[2,3-d] pyrimidine-5-carbonitrile] | < 50 nM | > 1000 nM | > 1000 nM
COc1cc(-c2cnn(C)c2)c(F)cc1Nc1nc(NC2CCOCC2)c2c(C#N)c[nH]c2n1 [Example 124, 2-((5-fluoro-2-methoxy-4-(1-methyl-1H-pyrazol-4-yl)phenyl)amino)-4-((tetrahydro-2H-pyran-4-yl)amino)-7H-pyrrolo[2,3-d] pyrimidine-5-carbonitrile] | < 50 nM | < 100 nM | < 100 nM
COC[C@@H](C)Nc1nc(Nc2ccc(-n3ccnc3C)cc2OC)nc2[nH]cc(C#N)c12 [Example 167, (R)-2-((2-methoxy-4-(2-methyl-1H-imidazol-1-yl)phenyl)amino)-4-((1-methoxypropan-2-yl)amino)-7H-pyrrolo[2,3-d] pyrimidine-5-carbonitrile] | < 50 nM | < 100 nM | < 100 nM
COc1cc(-c2ccnn2C)ccc1Nc1nc(NC2CCC(F)(F)C2)c2c(C#N)c[nH]c2n1 (stereo not drawn) [Example 110, 4-((3,3-difluorocyclopentyl)amino)-2-((2-methoxy-4-(l-methyl-1H-pyrazol-5-yl)phenyl)amino)-7H-pyrrolo[2,3-d] pyrimidine-5-carbonitrile] | < 50 nM | < 100 nM | < 100 nM
COc1cc(-c2ccccc2)ccc1Nc1nc(NC2CCOCC2)c2c(C#N)c[nH]c2n1 [Example 134, 2-((3-methoxy-[1,1 biphenyl]-4-yl)amino)-4-((tetrahydro-2H-pyran-4-yl)amino)-7H-pyrrolo[2,3-d] pyrimidine-5-carbonitrile] | < 50 nM | < 100 nM | < 100 nM
COc1cc(N2CCCS2(=O)=O)ccc1Nc1nc(NC2CCCC2)c2c(C(F)(F)F)c[nH]c2n1 [Example 176, 2-(4-((4-(cyclopentylamino)-5-(trifluoromethyl)-7H-pyrrolo[2,3-d]pyrimidin-2-yl)amino)-3-methoxyphenyl) isothiazolidine 1,1-dioxide] | 50 to 200 nM | 100 to 1000 nM | 100 to 1000 nM

Reference: US20230183243A1, “HETEROARYL DERIVATIVES AND PHARMACEUTICAL COMPOSITION COMPRISING SAME AS ACTIVE INGREDIENT” (VORONOI INC., priority 2019, published 2023)
